Source: US20250011318A1 (ARCUS BIOSCIENCES, INC., priority 2023, published 2025)

Legend:
Jurkat cells = assay: IL-2 secretion assay in CD3/CD28-activated Jurkat cells (AlphaLISA); format: cell-based, human; conditions: CD3/CD28 T Cell Activator, 24 h, IL-2 AlphaLISA
Method in brief: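 Jurkat cells (50,000/well) preincubated 1 h at 37° C with compound (16-point 1:2 series, final 10 μM to 300 pM) in Opti-MEM, then stimulated with CD3/CD28 activator for 24 h. Supernatant IL-2 read by AlphaLISA; EC50 from 4-parameter logistic fit.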

Cbl-b = target: T1, Cbl-b (Homo sapiens, UniProt Q13191); assay: Cbl-b probe displacement HTRF binding assay; conditions: 0.4 nM biotinylated Cbl-b, 150 nM BODIPY probe
T1 construct: biotin (biotinylated)
T1 sequence (Q13191 whole entry, species assumed): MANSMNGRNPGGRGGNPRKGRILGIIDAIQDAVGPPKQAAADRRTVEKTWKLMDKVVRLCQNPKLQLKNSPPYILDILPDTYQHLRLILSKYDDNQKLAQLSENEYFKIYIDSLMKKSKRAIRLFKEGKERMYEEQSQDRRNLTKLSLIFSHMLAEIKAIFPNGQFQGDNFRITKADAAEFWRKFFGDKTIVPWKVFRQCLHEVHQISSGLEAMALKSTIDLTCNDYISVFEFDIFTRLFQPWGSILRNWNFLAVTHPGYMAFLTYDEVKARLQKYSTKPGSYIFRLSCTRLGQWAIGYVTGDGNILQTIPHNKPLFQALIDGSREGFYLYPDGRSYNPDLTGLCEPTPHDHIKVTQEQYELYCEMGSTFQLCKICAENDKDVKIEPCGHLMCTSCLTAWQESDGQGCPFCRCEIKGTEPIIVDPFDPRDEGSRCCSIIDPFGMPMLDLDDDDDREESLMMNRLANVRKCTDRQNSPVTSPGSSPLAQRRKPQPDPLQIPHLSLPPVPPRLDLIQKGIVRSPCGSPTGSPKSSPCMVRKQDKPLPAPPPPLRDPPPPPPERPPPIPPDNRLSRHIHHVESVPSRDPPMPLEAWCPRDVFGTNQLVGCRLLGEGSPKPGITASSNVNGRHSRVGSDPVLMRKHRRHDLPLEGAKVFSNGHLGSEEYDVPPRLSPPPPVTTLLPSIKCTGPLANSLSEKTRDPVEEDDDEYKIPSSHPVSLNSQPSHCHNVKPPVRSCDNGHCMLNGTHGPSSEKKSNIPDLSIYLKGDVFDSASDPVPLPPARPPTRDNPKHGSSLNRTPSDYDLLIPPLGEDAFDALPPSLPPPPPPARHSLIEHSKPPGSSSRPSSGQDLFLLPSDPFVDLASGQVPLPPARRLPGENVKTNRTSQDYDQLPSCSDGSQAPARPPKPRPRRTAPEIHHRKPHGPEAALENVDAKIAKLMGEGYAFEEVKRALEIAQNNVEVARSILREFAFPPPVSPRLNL
Method in brief: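 Biotinylated Cbl-b (0.4 nM) preincubated 60 min at RT with compound (20-point 1:2 series, 10 μM top), then 150 nM BODIPY probe for 15 min, then streptavidin-terbium detection. Buffer: 20 mM Hepes, 150 mM NaCl, 0.01% Triton X-100, 0.5 mM TCEP, 0.01% BSA. Loss of HTRF signal gave IC50 via four-parameter fit.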

Compound | EC50 (Jurkat cells; Homo sapiens) [nM] | IC50 (Cbl-b) [nM] | EC50 (Jurkat cells) [nM]
Cn1cnnc1-c1cc(F)ccc1-c1cc(C2CC2)nc(-n2cc(C(F)(F)F)c3cc[nH]c3c2=O)c1 [Example 141, 6-[6-cyclopropyl-4-[4-fluoro-2-(4-methyl-1,2,4-triazol-3-yl)phenyl]pyridin-2-yl]-4-(trifluoromethyl)-1H-pyrrolo[2,3-c]pyridin-7-one] | < 100 | < 100 | –
Cn1cnnc1-c1cc(F)ccc1-c1cc(C2CC2)nc(-n2cnc3cc(C4CCOC4)[nH]c3c2=O)c1 (stereo not drawn) [Example 125, 3-[6-cyclopropyl-4-[4-fluoro-2-(4-methyl-1,2,4-triazol-3-yl)phenyl]-pyridin-2-yl]-6-(oxolan-3-yl)-5H-pyrrolo[3,2-d]pyrimidin-4-one] | 100 to 1000 | < 100 | –
Cn1cnnc1-c1cc(F)ccc1-c1cc(C2CC2)nc(-n2cc(C(F)(F)F)c3cc(CO)[nH]c3c2=O)c1 [Example 137, 6-[6-cyclopropyl-4-[4-fluoro-2-(4-methyl-1,2,4-triazol-3-yl)phenyl]pyridin-2-yl]-2-(hydroxymethyl)-4-(trifluoromethyl)-1H-pyrrolo[2,3-c]pyridin-7-one] | < 100 | < 100 | –
CC1(NCc2cc3ncn(-c4cc(-c5ccc(F)cc5-n5nccc5C(F)(F)F)cc(C5CC5)n4)c(=O)c3[nH]2)CCC1 [Example 105, 3-[6-cyclopropyl-4-[4-fluoro-2-[5-(trifluoromethyl)pyrazol-1-yl]phenyl]pyridin-2-yl]-6-[[(1-methylcyclobutyl)amino]methyl]-5H-pyrrolo[3,2-d]pyrimidin-4-one] | 100 to 1000 | < 100 | –
Cc1ocnc1-c1cc(C#N)ccc1-c1cc(C2CC2)nc(-n2cc(C3CC3)c3cc(CNC4(C)CCC4)[nH]c3c2=O)c1 [Example 71, 4-(6-cyclopropyl-2-{4-cyclopropyl-2-[(1-methylcyclobutylamino)methyl]-7-oxo-1,6-dihydro-1,6-diaza-6-indenyl}-4-pyridyl)-3-(5-methyl-1,3-oxazol-4-yl)benzonitrile] | < 100 | < 100 | –
Cn1cnnc1-c1cc(F)ccc1-c1cc(C2CC2)nc(-n2cnc3cc(CNC4(C)CCC4)[nH]c3c2=O)c1 [Example 29, 3-[6-cyclopropyl-4-[4-fluoro-2-(4-methyl-1,2,4-triazol-3-yl)phenyl]pyridin-2-yl]-6-[[(1-methylcyclobutyl)amino]methyl]-5H-pyrrolo[3,2-d]pyrimidin-4-one] | < 100 | < 100 | –
COCCNCc1cc2ncn(-c3cc(-c4ccc(F)cc4-n4nncc4C)cc(C4CC4)n3)c(=O)c2[nH]1 [Example 132] | < 100 | < 100 | –
Cc1cnnn1-c1cc(F)ccc1-c1cc(C2CC2)nc(-n2cc(C(F)(F)F)c3nc(C4CC4)[nH]c3c2=O)c1 [Example 133, 2-cyclopropyl-5-{6-cyclopropyl-4-[4-fluoro-2-(5-methyl-1H-1,2,3-triazol-1-yl)phenyl]-2-pyridyl}-7-(trifluoromethyl)-3,5-dihydro-1,3,5-triaza-4-indenone] | 100 to 1000 | < 100 | –
CC1(NCc2cc3c(C4CC4)cn(-c4cc(-c5ccc(C#N)cc5-c5nncn5C(F)F)cc(C5CC5)n4)c(=O)c3[nH]2)CCC1 [Example 68, 4-(6-cyclopropyl-2-{4-cyclopropyl-2-[(1-methylcyclobutylamino)methyl]-7-oxo-1,6-dihydro-1,6-diaza-6-indenyl}-4-pyridyl)-3-[4-(difluoromethyl)-4H-1,2,4-triazol-3-yl]benzonitrile] | < 100 | < 100 | –
Cn1cc(C#N)nc1-c1cc(F)ccc1-c1cc(C2CC2)nc(-n2cnc3cc(CNCCC(F)(F)F)[nH]c3c2=O)c1 [Example 112, 2-[2-[2-cyclopropyl-6-[4-oxo-6-[(3,3,3-trifluoropropylamino)methyl]-5H-pyrrolo[3,2-d]pyrimidin-3-yl]pyridin-4-yl]-5-fluorophenyl]-1-methylimidazole-4-carbonitrile] | < 100 | < 100 | –
Cn1cnnc1-c1cc(F)ccc1-c1cc(C2CC2)nc(-n2cnc3cc(C(O)C4CCCC4)[nH]c3c2=O)c1 (stereo not drawn) [Example 126, 6-[cyclopentyl(hydroxy)methyl]-3-[6-cyclopropyl-4-[4-fluoro-2-(4-methyl-1,2,4-triazol-3-yl)phenyl]pyridin-2-yl]-5H-pyrrolo[3,2-d]pyrimidin-4-one] | < 100 | < 100 | –
Cn1cnnc1-c1cc(F)ccc1-c1cc(C2CC2)nc(-n2cc(C#N)c3cc(C(O)C4CCOC4)[nH]c3c2=O)c1 (stereo not drawn) [Example 90, 6-{6-cyclopropyl-4-[4-fluoro-2-(4-methyl-4H-1,2,4-triazol-3-yl)phenyl]-2-pyridyl}-2-[hydroxy(tetrahydro-3-furyl)methyl]-7-oxo-1,6-dihydro-1,6-diaza-4-indenecarbonitrile] | 100 to 1000 | < 100 | –
COCNCC1=CC2C(N1)C(=O)N(c1cc(-c3ccc(F)cc3-n3nncc3C)cc(C3CC3)n1)CC2C(F)(F)F (stereo not drawn) [Example 130, 6-[6-cyclopropyl-4-[4-fluoro-2-(5-methyltriazol-1-yl)phenyl]pyridin-2-yl]-2-[(methoxymethylamino)methyl]-4-(trifluoromethyl)-3a,4,5,7a-tetrahydro-1H-pyrrolo[2,3-c]pyridin-7-one] | – | < 100 | < 100
CC(=O)N1CCC[C@H]1c1nc2c(C(F)(F)F)cn(-c3cc(-c4ccc(F)cc4-c4nncn4C)cc(C4CC4)n3)c(=O)c2[nH]1 [Example 45, 2-[(2S)-1-acetylpyrrolidin-2-yl]-5-[6-cyclopropyl-4-[4-fluoro-2-(4-methyl-1,2,4-triazol-3-yl)phenyl]pyridin-2-yl]-7-(trifluoromethyl)-3H-imidazo[4,5-c]pyridin-4-one] | 100 to 1000 | < 100 | –
CO[C@@H](C)CNCc1cc2ncn(-c3cc(-c4ccc(C#N)cc4-n4nncc4CF)cc(C4CC4)n3)c(=O)c2[nH]1 [Example 139, 4-[2-(2-{[(S)-2-methoxypropylamino]methyl}-7-oxo-1,6-dihydro-1,4,6-triaza-6-indenyl)-6-cyclopropyl-4-pyridyl]-3-[5-(fluoromethyl)-1H-1,2,3-triazol-1-yl]benzonitrile] | < 100 | < 100 | –
Cn1cnnc1-c1cc(F)ccc1-c1cc(C2CC2)nc(-n2cnc3cc(CC4COC4)[nH]c3c2=O)c1 [Example 123, 3-[6-cyclopropyl-4-[4-fluoro-2-(4-methyl-1,2,4-triazol-3-yl)phenyl]pyridin-2-yl]-6-(oxetan-3-ylmethyl)-5H-pyrrolo[3,2-d]pyrimidin-4-one] | 100 to 1000 | < 100 | –
Cn1ccnc1-c1cc(F)ccc1-c1cc(C2CC2)nc(-n2cc(C3CC3)c3cc(CN4C[C@H]5C[C@@H]4CO5)[nH]c3c2=O)c1 [Example 60, 2-({(1R,4R)-2-oxa-5-azabicyclo[2.2.1]hept-5-yl}methyl)-4-cyclopropyl-6-{6-cyclopropyl-4-[4-fluoro-2-(1-methyl-2-imidazolyl)phenyl]-2-pyridyl}-1,6-dihydro-1,6-diaza-7-indenone] | 100 to 1000 | < 100 | –
Cn1cnnc1-c1cc(F)ccc1-c1cc(C2CC2)nc(-n2cc(C#N)c3cc(C(O)c4cccnc4)[nH]c3c2=O)c1 (stereo not drawn) [Example 92, 6-{6-Cyclopropyl-4-[4-fluoro-2-(4-methyl-4H-1,2,4-triazol-3-yl)phenyl]-2-pyridyl}-2-[hydroxy(3-pyridyl)methyl]-7-oxo-1,6-dihydro-1,6-diaza-4-indenecarbonitrile] | < 100 | < 100 | –
